Measurements as given in patent publication US7709495B2, “Methods and reagents for the treatment of inflammatory disorders” (CombinatoRx, Incorporated, priority 2003, dated 2010).
Where two headings read alike, the source gives them in different places.

What was measured:
[1] = tested on: IL-1 secretion; test: IL-1 secretion assay (ELISA), LPS stimulated white blood cells; format: cell-based; details: Homo sapiens, PBMC
Method: (§1) The compound dilution matrix was assayed for the suppression of phorbol 12-myristate 13 acetate/ionomycin stimulated IL-1 and TNFα secretion as well as the suppression of lipopolysaccharide-stimulated TNFα secretion from human white blood cells using the ELISA method, as described below.
(§2) A stock solution containing prednisolone (0.36 mg/ml) was prepared in DMSO. A stock solution containing ibudilast (1.84 mg/ml) was prepared in DMSO. Master plates were prepared for dilutions of the stock solutions above.
(§3) The final single agent plates were generated by transferring 1 μL of stock solution from the specific master plate to separate dilution plates containing 99 μL of media (RPMI; Gibco BRL, #11875-085), 10% fetal bovine serum (Gibco BRL, #25140-097), 2% penicillin/streptomycin (Gibco BRL, #15140-122)) using the Packard Mini-Trak liquid handler. The dilution plates were then mixed and a 10 μL aliquot transferred from each dilution plate to the final assay plate (polystyrene 384-well plate (NalgeNunc)), which had been pre-filled with 30 μL/well RPMI media containing 33 ng/mL phorbol 12-myristate 13-acetate (Sigma, P-1585) and 2.475 ng/mL ionomycin (Sigma, I-0634) or alternatively for the LPS stimulated assay RPMI media containing 2 μg/ml lipopolysaccharide (Sigma, L-4130).
The effects of test compound combinations on IL-1 secretion were assayed in white blood cells from human buffy coat stimulated with LPS, as follows. Human white blood cells from buffy coat were diluted 1:50 in media (RPMI; Gibco BRL, #11875-085), 10% fetal bovine serum (Gibco BRL, #25140-097), 2% penicillin/streptomycin (Gibco BRL, #15140-122)) and 50 μL of the diluted white blood cells was placed in each well of the final assay plate created in the above section. After 16-18 hours of incubation at 37° C. in a humidified incubator, the plate was centrifuged and the supernatant was transferred to a white opaque 384-well plate (NalgeNunc, MAXISORB) coated with an anti-IL-1 antibody (R&D Systems, MAB601). After a two-hour incubation, the plate was washed (Tecan Powerwasher 384) with PBS containing 0.1% Tween 20 and incubated for an additional one hour with a biotin labeled anti-IL-1 antibody (R&D Systems, BAF201) and horse radish peroxidase coupled to streptavidin (PharMingen, #554066). The plate was then washed again with 0.1% Tween 20/PBS, and an HRP-luminescent substrate was added to each well. Light intensity was then measured using a plate luminometer.
(§4) The percent inhibition (% I) for each well was calculated using the following formula: % I=[(avg. untreated wells−treated well)/(avg. untreated wells)]×100
(§5) The average untreated well value (avg. untreated wells) is the arithmetic mean of 30 wells from the same assay plate treated with vehicle alone.
IL-1 secretion was measured by ELISA as described above after stimulation with lipopolysaccharide. The effects of varying concentrations of ibudilast, prednisolone and a combination of ibudilast and prednisolone were compared to control wells.

[2] = tested on: TNFα secretion; test: TNFα secretion assay (ELISA), lipopolysaccharide stimulated white blood cells; format: cell-based; details: Homo sapiens, PBMC, read-out: % Inhibition TNFα PBMC LPS
Method: as §1, §2, §3
The effects of test compound combinations on TNFα secretion were assayed in white blood cells from human buffy coat stimulated with phorbol 12-myistate 13-acetate, or lipopolysaccharide as follows. Human white blood cells from buffy coat were diluted 1:50 in media (RPMI; Gibco BRL, #11875-085), 10% fetal bovine serum (Gibco BRL, #25140-097), 2% penicillin/streptomycin (Gibco BRL, #15140-122)) and 50 μL of the diluted white blood cells were placed in each well of the final assay plate created in the above section. After 16-18 hours of incubation at 37° C. with 5% CO2 in a humidified incubator, the plate was centrifuged and the supernatant transferred to a white opaque polystyrene 384 well plate (NalgeNunc, Maxisorb) coated with an anti-TNFα antibody (PharMingen, #551220). After a two-hour incubation, the plate was washed (Tecan Powerwasher 384) with PBS containing 0.1% Tween 20 and incubated for one additional hour with biotin labeled anti-TNFα antibody (PharMingen, #554511) and HRP coupled to streptavidin (PharMingen, #13047E). The plate was then washed again with 0.1% Tween 20/PBS. An HRP-luminescent substrate was added to each well, and the light intensity of each well was measured using a plate luminometer.
as §4, §5
TNFα secretion was measured by ELISA as described above after stimulation with lipopolysaccharide. The effects of varying concentrations of ibudilast, prednisolone and a combination of ibudilast and prednisolone were compared to control wells.

C[C@]12C=CC(=O)C=C1CC[C@@H]1[C@@H]2[C@@H](O)C[C@@]2(C)[C@H]1CC[C@]2(O)C(=O)CO [Prednisolone, prednisolone]
inhibition at 0.0078 µM ([1]; prednisolone 0.0078 μM alone): 18% | inhibition at 0.016 µM ([1]; prednisolone 0.016 μM alone): 25% | inhibition at 0.031 µM ([1]; prednisolone 0.031 μM alone): 50% | inhibition at 0.062 µM ([1]; prednisolone 0.062 μM alone): 69% | inhibition at 0.12 µM ([1]; prednisolone 0.12 μM alone): 70% | inhibition at 0.25 µM ([1]; prednisolone 0.25 μM alone): 74% | inhibition at 0.5 µM ([1]; prednisolone 0.5 μM alone): 77% | inhibition at 1 µM ([1]; prednisolone 1 μM alone): 84% | inhibition at 0.0078 µM ([2]; prednisolone 0.0078 μM alone): 0.085% | inhibition at 0.016 µM ([2]; prednisolone 0.016 μM alone): 17% | inhibition at 0.031 µM ([2]; prednisolone 0.031 μM alone): 24% | inhibition at 0.062 µM ([2]; prednisolone 0.062 μM alone): 47% | inhibition at 0.12 µM ([2]; prednisolone 0.12 μM alone): 57% | inhibition at 0.25 µM ([2]; prednisolone 0.25 μM alone): 66% | inhibition at 0.5 µM ([2]; prednisolone 0.5 μM alone): 68% | inhibition at 1 µM ([2]; prednisolone 1 μM alone): 70%

CC(C)C(=O)c1c(C(C)C)nn2ccccc12 [Ibudilast, ibudilast]
inhibition at 0.062 µM ([1]; ibudilast 0.062 μM alone): 19% | inhibition at 0.12 µM ([1]; ibudilast 0.12 μM alone): -1.6% | inhibition at 0.25 µM ([1]; ibudilast 0.25 μM alone): 20% | inhibition at 0.5 µM ([1]; ibudilast 0.5 μM alone): 18% | inhibition at 1 µM ([1]; ibudilast 1 μM alone): 41% | inhibition at 2 µM ([1]; ibudilast 2 μM alone): 42% | inhibition at 4 µM ([1]; ibudilast 4 μM alone): 50% | inhibition at 8 µM ([1]; ibudilast 8 μM alone): 61% | inhibition at 0.062 µM ([2]; ibudilast 0.062 μM alone): 17% | inhibition at 0.12 µM ([2]; ibudilast 0.12 μM alone): 24% | inhibition at 0.25 µM ([2]; ibudilast 0.25 μM alone): 41% | inhibition at 0.5 µM ([2]; ibudilast 0.5 μM alone): 46% | inhibition at 1 µM ([2]; ibudilast 1 μM alone): 58% | inhibition at 2 µM ([2]; ibudilast 2 μM alone): 66% | inhibition at 4 µM ([2]; ibudilast 4 μM alone): 70% | inhibition at 8 µM ([2]; ibudilast 8 μM alone): 79%
